Legend:
SSTR4 [1] = molecular target: T1, SSTR4 (Homo sapiens (Human), UniProt P31391); assay: Inhibition of forskolin stimulated cAMP in CHO-K1 cells overexpressing SSTR4; type: cell-based; settings: for EC50: read-out: SSTR4 Activity pEC50 (converted)
Procedure, shortened: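 Read-out is a HTRF LANCE Ultra cAMP competition using Eu-labelled streptavidin and biotin-cAMP, incubated 60 min at room temperature. It followed a 30 min room-temperature exposure of Kreb's Ringer-washed cells to compound plus forskolin. Potency is expressed as pEC50.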

SSTR4 [2] = molecular target: T1, SSTR4; assay: SSTR4 I-125 somatostatin competition binding assay (membranes from CHO-K1 cells overexpressing SSTR4); settings: competition with I-125 labeled somatostatin; for IC50: read-out: SSTR4 Binding pIC50 (converted)
Protocol: Membranes from CHO-K1 cells overexpressing SSTR4 are purchased from Perkin Elmer (catalog number ES-524-M400UA). Test compounds are suspended in DMSO and then diluted in assay buffer (25 mM HEPES pH 7.4, 10 mM MgCl2, 1 mM CaCl2), 0.5% BSA) plus 0.2 nM I-125 labeled somatostatin (Perkin Elmer catalog number NEX389). […] Then 1 μg of SSTR4 membranes in 50 μL assay buffer are added per well. The Plate is incubated for 60 minutes at room temperature. FilterMat A filters (Perkin Elmer catalog number 1450-421) are pre-soaked in 0.5% PEI (Sigma catalog number P3143). The contents of the assay plate are transferred to filters with a TomTech harvester and washed 5 times with 20 mM HEPES, 100 mM NaCl. The filters are dried in a microwave oven then transferred to sample bag containing a scintillator sheet (Perkin Elmer catalog number 1450-441). The scintillator sheets are melted to filters using a heat block. The filters are then read in a MicroBeta scintillation counter. Binding Ki curves are generated using Activity Base for Screening Data Management and the results are reported as pIC50.

T1 sequence (P31391 whole entry): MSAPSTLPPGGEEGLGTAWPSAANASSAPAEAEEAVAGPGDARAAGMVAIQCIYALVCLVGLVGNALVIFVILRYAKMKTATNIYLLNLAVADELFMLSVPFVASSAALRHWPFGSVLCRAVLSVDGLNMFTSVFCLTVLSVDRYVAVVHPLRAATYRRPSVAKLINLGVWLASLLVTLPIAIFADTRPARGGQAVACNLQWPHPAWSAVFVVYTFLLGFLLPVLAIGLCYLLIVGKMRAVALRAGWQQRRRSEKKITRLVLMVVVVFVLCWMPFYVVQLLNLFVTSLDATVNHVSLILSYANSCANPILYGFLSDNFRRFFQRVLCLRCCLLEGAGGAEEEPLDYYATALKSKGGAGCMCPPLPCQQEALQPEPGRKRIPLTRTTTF

| SMILES | SSTR4 Activity pEC50 (SSTR4 [1]) | SSTR4 Binding pIC50 (SSTR4 [2]) | EC50 (SSTR4 [1]) | IC50 (SSTR4 [2]) |
| --- | --- | --- | --- | --- |
| CCOc1ccccc1OCC(C)(C)C(=O)NC1CCN(C)CC1 [Example 78, 3-(2-ethoxyphenoxy)-2,2-dimethyl-N-(1-methylpiperidin-4-yl)propanamide] | 7.4 | 6.7 | – | – |
| Cc1cnc(OCC(C)(C)C(=O)N[C@@H]2CCNC[C@H]2F)c(C)c1 [Example 214, 3-((3,5-dimethylpyridin-2-yl)oxy)-N-((3R,4R)-3-fluoropiperidin-4-yl)-2,2-dimethylpropanamide] | 8.2 | 6.8 | – | – |
| Cc1cnc(OCC(C)(C)C(=O)N[C@@H]2CCN(C)[C@H](C)C2)c(C)c1 [Example 218, N-((2R,4R)-1,2-dimethylpiperidin-4-yl)-3-((3,5-dimethylpyridin-2-yl)oxy)-2,2-dimethylpropanamide] | 7.5 | 6.2 | – | – |
| COc1cccnc1OCC(C)(C)C(=O)NC1CCN(C)CC1 [Example 49, 3-((3-methoxypyridin-2-yl)oxy)-2,2-dimethyl-N-(1-methylpiperidin-4-yl)propanamide] | 6.7 | 6.0 | – | – |
| Cc1cccnc1OCC(F)(F)C(=O)N[C@H]1CCNC[C@@H]1F [Example 201, 2,2-difluoro-N-((3S,4S)-3-fluoropiperidin-4-yl)-3-((3-methylpyridin-2-yl)oxy)propanamide] | 7.5 | 6.7 | – | – |
| O=C(N[C@H]1CCNC[C@@H]1F)C(F)(F)COc1ncccc1OC(F)(F)F [Example 207, 2,2-difluoro-N-((3S,4S)-3-fluoropiperidin-4-yl)-3-((3-(trifluoromethoxy)pyridin-2-yl)oxy)propanamide] | 8.1 | 7.6 | – | – |
| Cc1cccnc1OCC(C)(C)C(=O)NC1CCN(C)CC1 [Example 1, 2,2-dimethyl-N-(1-methylpiperidin-4-yl)-3-((3-methylpyridin-2-yl)oxy)propanamide] | 7.3 | 6.4 | – | – |
| C[C@@H]1CN(CC#N)CC[C@H]1NC(=O)C(C)(C)COc1ncccc1OC(F)(F)F (relative stereo) [Example 184, trans-N-(1-(cyanomethyl)-3-methylpiperidin-4-yl)-2,2-dimethyl-3-((3-(trifluoromethoxy)pyridin-2-yl)oxy)propanamide] | 7.6 | 6.0 | – | – |
| CC[C@@H]1CN(C)CC[C@@H]1NC(=O)C(C)(C)COc1ncccc1C(F)(F)F (relative stereo) [Example 111, cis-N-(3-ethyl-1-methylpiperidin-4-yl)-2,2-dimethyl-3-((3-(trifluoromethyl)pyridin-2-yl)oxy)propanamide] | 7.7 | 6.7 | – | – |
| C[C@@H]1C[C@H](NC(=O)C(C)(C)COc2ncccc2C(F)(F)F)CCN1C [Example 176] | 7.7 | 7.1 | – | – |
| CC[C@@H]1CN(C)CC[C@@H]1NC(=O)C(C)(C)COc1ncccc1OC(F)(F)F (relative stereo) [Example 116, N-(cis-3-ethyl-1-methylpiperidin-4-yl)-2,2-dimethyl-3-((3-(trifluoromethoxy)pyridin-2-yl)oxy)propanamide] | 7.5 | 6.2 | – | – |
| Cc1cccnc1OCC(C)(C)C(=O)N[C@H]1CCN(C)C[C@@H]1F [Example 121, N-((3S,4S)-3-fluoro-1-methylpiperidin-4-yl)-2,2-dimethyl-3-((3-methylpyridin-2-yl)oxy)propanamide] | 6.9 | 6.6 | – | – |
| O=C(N[C@H]1CCNC[C@@H]1F)C(F)(F)COc1ncccc1C(F)(F)F [Example 197, 2,2-difluoro-N-((3S,4S)-3-fluoropiperidin-4-yl)-3-((3-(trifluoromethyl)pyridin-2-yl)oxy)propanamide] | 7.7 | 7.0 | – | – |
| Cc1cccnc1OCC(F)(F)C(=O)N[C@@H]1CCN(C)C[C@H]1C (racemic) [Example 199, N-(trans-1,3-dimethylpiperidin-4-yl)-2,2-difluoro-3-((3-methylpyridin-2-yl)oxy)propanamide] | – | – | 158 nM | 794 nM |
| Cc1ncccc1[C@@H]1CNCC[C@H]1OC(=O)C(C)(C)COc1ncccc1C(F)(F)F (racemic) [Example 170, trans-3-(2-methylpyridin-3-yl)piperidin-4-yl 2,2-dimethyl-3-((3-(trifluoromethyl)pyridin-2-yl)oxy)propanoate] | – | – | 39.8 nM | 200 nM |
| C[C@@H]1CN(C)CC[C@H]1NC(=O)C(C)(C)COc1ncccc1OC(F)(F)F (single isomer, unassigned) [Example 13, trans-N-(1,3-dimethylpiperidin-4-yl)-2,2-dimethyl-3-((3-(trifluoromethoxy)pyridin-2-yl)oxy)propanamide] | 8.4 | 7.5 | – | – |
| CC[C@@H]1CN(C)CC[C@H]1NC(=O)C(C)(C)COc1ncccc1OC(F)(F)F (racemic) [Example 115, N-(trans-3-ethyl-1-methylpiperidin-4-yl)-2,2-dimethyl-3-((3-(trifluoromethoxy)pyridin-2-yl)oxy)propanamide] | – | – | 0.631 nM | 5.01 nM |

| SMILES | SSTR4 Activity pEC50 (SSTR4 [1]) | SSTR4 Binding pIC50 (SSTR4 [2]) | EC50 (SSTR4 [1]) | IC50 (SSTR4 [2]) |
| --- | --- | --- | --- | --- |
| C[C@@H]1CN(C)CC[C@H]1NC(=O)C(C)(C)COc1ncccc1OC(F)(F)F (single isomer, unassigned) [Example 108] | 6.8 | 6.1 | – | – |
| C[C@H]1CNCC[C@@H]1NC(=O)C(C)(C)COc1ccccc1F [Example 196, 3-(2-fluorophenoxy)-2,2-dimethyl-N-((3S,4S)-3-methylpiperidin-4-yl)propanamide] | 8.5 | 7.5 | – | – |
| CC[C@@H]1CN(C)CC[C@H]1NC(=O)C(C)(C)COc1ncccc1C(F)(F)F (single isomer, unassigned) [Example 144] | 8.7 | 8.0 | – | – |
| Cc1cnc(OCC(C)(C)C(=O)N[C@H]2CCN(C)C[C@@H]2C)c(C)c1 [Example 141, N-((3S,4S)-1,3-dimethylpiperidin-4-yl)-3-((3,5-dimethylpyridin-2-yl)oxy)-2,2-dimethylpropanamide] | 7.4 | 6.8 | – | – |
| Cc1cnc(OCC(C)(C)C(=O)N[C@@H]2CCN(C)C[C@H]2C)c(C)c1 (single isomer, unassigned) [Example 31, trans-N-(1,3-dimethylpiperidin-4-yl)-3-((3,5-dimethylpyridin-2-yl)oxy)-2,2-dimethylpropanamide] | – | – | 25.1 nM | 251 nM |
| CC(C)(COc1ncccc1C(F)(F)F)C(=O)N[C@H]1CCNC[C@@H]1F [Example 158, N-((3S,4S)-3-fluoropiperidin-4-yl)-2,2-dimethyl-3-((3-(trifluoromethyl)pyridin-2-yl)oxy)propanamide] | 8.2 | 8.1 | – | – |
| Cc1cnc(OCC(C)(C)C(=O)NC2CCN(C)CC2)c(C)c1 [Example 84, 3-((3,5-dimethylpyridin-2-yl)oxy)-2,2-dimethyl-N-(1-methylpiperidin-4-yl)propanamide] | 7.4 | 6.5 | – | – |
| C[C@H]1CN(C)CC[C@@H]1NC(=O)C(C)(C)COc1ncccc1OC(F)(F)F [Example 107, N-((3S,4S)-1,3-dimethylpiperidin-4-yl)-2,2-dimethyl-3-((3-(trifluoromethoxy)pyridin-2-yl)oxy)propanamide] | 8.7 | 7.7 | – | – |
| C[C@@H]1C[C@H](NC(=O)C(F)(F)COc2ncccc2OC(F)(F)F)CCN1C [Example 206, N-((2R,4R)-1,2-dimethylpiperidin-4-yl)-2,2-difluoro-3-((3-(trifluoromethoxy)pyridin-2-yl)oxy)propanamide] | 7.7 | 6.7 | – | – |
| C[C@@H]1CN(C)CC[C@H]1NC(=O)C(C)(C)COc1ncccc1C(F)(F)F (relative stereo) [Example 109, trans-N-(1,3-dimethylpiperidin-4-yl)-2,2-dimethyl-3-((3-(trifluoromethyl)pyridin-2-yl)oxy)propanamide] | 8.0 | 7.0 | – | – |
| C[C@H]1C[C@@H](NC(=O)C(C)(C)COc2ncccc2C(F)(F)F)CCN1C [Example 178, N-((2S,4S)-1,2-dimethylpiperidin-4-yl)-2,2-dimethyl-3-((3-(trifluoromethyl)pyridin-2-yl)oxy)propanamide] | – | 6.5 | – | – |
| Cc1cnc(OCC(C)(C)C(=O)N[C@H]2CCN(C)C[C@@H]2F)c(C)c1 [Example 122, 3-((3,5-dimethylpyridin-2-yl)oxy)-N-((3S,4S)-3-fluoro-1-methylpiperidin-4-yl)-2,2-dimethylpropanamide] | 6.6 | – | – | – |
| Cc1cnc(OCC(C)(C)C(=O)N[C@@H]2CN(C)C[C@H]2C)c(C)c1 (relative stereo) [Example 183, 3-((3,5-dimethylpyridin-2-yl)oxy)-N-(trans-1,4-dimethylpyrrolidin-3-yl)-2,2-dimethylpropanamide] | – | – | 251 nM | – |
| CC(C)(COc1ncccc1C(F)(F)F)C(=O)N[C@@H]1CNC[C@H]1F (relative stereo) [Example 130, trans-N-(4-fluoropyrrolidin-3-yl)-2,2-dimethyl-3-((3-(trifluoromethyl)pyridin-2-yl)oxy)propanamide] | – | – | 251 nM | – |
| CN1CC[C@@H](NC(=O)C(C)(C)COc2ncccc2OC(F)(F)F)[C@H](c2ccccc2)C1 (relative stereo) [Example 167, 2,2-dimethyl-N-(trans-1-methyl-3-phenylpiperidin-4-yl)-3-((3-(trifluoromethoxy)pyridin-2-yl)oxy)propanamide] | 6.8 | – | – | – |
| CCc1ccccc1OCC(C)(C)C(=O)NC1CN(C)CC1c1ccccc1 (stereo not drawn) [Example 97, 3-(2-ethylphenoxy)-2,2-dimethyl-N-(1-methyl-4-phenylpyrrolidin-3-yl)propanamide] | 7.9 | – | – | – |
